Reference: ChEMBL document CHEMBL3507680, “University of Dundee, Gates Library screen for HepG2 cell viability”

Assay: Human HepG2 cell viability assay in 384 well format
Type: toxicity, cell-based
Design: dose 125 nL, time 70.5 hour; cytotoxicity at 70.5 h: concentration not given beside the values
Conditions: HepG2 cells, read-out: Inhibition

SMILES | cytotoxicity at 70.5 h [%]
COc1ccc(-c2ncccc2C(=O)N2C[C@H]3CC[C@@H]2C3)cn1 | -2.51
CCc1nc(NCC2CCCN(C(=O)C3CC3)C2)c2cnn(C)c2n1 (stereo not drawn) | -16.2
N#Cc1cccc(N2CCCC(CO)(CCOc3ccccc3)C2)n1 (stereo not drawn) | 8.55
O=C(CCC1CC1)N1CCC(n2cc(C3(O)CCCC3)nn2)CC1 | 24.3
COCC(=O)N1CC[C@]2(O)CCN(C(=O)CCc3ccsc3)C[C@@H]2C1 | -10.1
CN1CCN(C[C@@H]2CN(Cc3c(Cl)cncc3Cl)C[C@@H]2CO)CC1 | -11.7
OC1(CNCCc2nc3c(s2)CCCC3)CCNC1 (stereo not drawn) | -2.83
COCCN1CCN(C(=O)c2ccccc2C(C)=O)[C@H]2CS(=O)(=O)C[C@H]21 | -5.79
COCCN1CCC(c2nc3c([nH]2)CC(C)(C)CNC3=O)CC1 | -4.63
COCCN1C(=O)[C@H]2CC[C@@H]1CN(Cc1nnc(-c3ccccc3)o1)C2 | -4.89
Cc1cnc(C)c(-c2cc(O)c3c(c2)CN(c2ncccn2)CCO3)n1 | 48.2
Cc1ccc([C@H]2CN(C(=O)C3CCC3)C[C@@H]2N)o1 | -1.49
COc1ccc2[nH]nc(CN3CCC(C(=O)N4CCCCC4)CC3)c2c1 | -1.62
CC1(C)CC1(C(=O)N1CC(c2cccnc2)C1)c1ccccc1F (stereo not drawn) | -7.64
O=C(CN1CCCC1c1nc2cc(F)ccc2[nH]1)NCc1ccccn1 (stereo not drawn) | -3.28
FC(F)(F)C1CN(c2nc(-c3ccccc3)no2)CCO1 (stereo not drawn) | -14.1
CCOCCNC(=O)c1cc(COc2cncc(Cl)c2)on1 | -0.86
Nc1nc2c(c(N3CCCC(OCc4ccccn4)C3)n1)CCNCC2 (stereo not drawn) | -6.98
O=C(CN1CC(c2ccccc2)CC1=O)NCc1cc2n(n1)CCNC2 (stereo not drawn) | -8.02
COCCCN(C(=O)c1ccc(-n2ccnc2)cc1)C1CCN(C)CC1 | 35.1
O=C(CC1=CSC2=NCCCN12)N1CCCCCC1c1ccco1 (stereo not drawn) | 9.09
CC(C)n1ccnc1C1CCN(C(=O)c2ccccc2N(C)C)CC1 | -2.41
CCOc1ccccc1N1CCN(CC2(O)CCCNC2)CC1 (stereo not drawn) | -1.19
COc1cc(C(=O)N2CCC3(CC2)Nc2ccccc2NC3=O)ccn1 | 19
c1ccc(Cc2nc(CNC3CCC4(CCNCC4)CC3)no2)cc1 | -4.21
Cc1cccn2c(CNC(C)CCn3cccn3)cnc12 (stereo not drawn) | 3.49

SMILES | cytotoxicity at 70.5 h [%]
Cc1nc(CCC(=O)N2Cc3cnc(-c4ccccc4)nc3C2)n[nH]1 | -14.8
Cc1nonc1OCCNC(=O)CCCc1ccc(Cl)cc1 | -5.01
Cc1cccc(=O)n1CCC(=O)N(C)Cc1cccc2ncccc12 | -15.2
Cc1ccc(-c2nc(CNS(=O)(=O)N(C)C)[nH]c2-c2ccccn2)cc1 | -2.34
CCCN1CCC(N2CCN(c3cccc(C)n3)CC2)CC1 | 5.86
O=C(CCC1CCCN(C(=O)CCN2CCCCO2)C1)N1CCCC1 (stereo not drawn) | -5.73
CCc1nnc(CN(C)Cc2cccc(C(=O)Nc3cnn(C)c3)c2)o1 | 3.92
Fc1ccccc1Cc1noc(CN2CC[C@@H]3CCCC[C@H]3C2)n1 | -4.61
O=C(O)C1(n2ccnc2)CCN(Cc2cc3ccccc3o2)CC1 | -5.42
CN(Cc1n[nH]c2c1CCCC2)C(=O)c1cccc(CCC(C)(C)O)c1 | -4.47
CN1C(=O)CC(C(=O)O)C12CCN(Cc1ccc(F)c(Cl)c1)CC2 (stereo not drawn) | 0.558
O=C1NCC2(CCCN(C(=O)c3ccc4c(c3)CCO4)C2)O1 (stereo not drawn) | -4.91
N#Cc1cccc(C(=O)N2CCC3(CCC(=O)N(C4CC4)C3)CC2)c1 | 6.81
CCc1nc(NC2CC(=O)N(CC3CCCCC3)C2)ncc1C (stereo not drawn) | -8.17
Cc1ccc(N2CC[C@@]3(O)CCN(S(C)(=O)=O)C[C@H]3C2)nn1 | 6.8
Cc1n[nH]c(C)c1-c1c(C#N)c(N)nc2c1CCc1[nH]ccc1-2 | -3.53
CCN1CCC(CC(=O)NCC(O)c2cccc(OC)c2)CC1 (stereo not drawn) | -6.22
C=C(C)CN1CCC(n2cc(C3CCCC3)nn2)CC1 | -2.5
Cc1cc(C(=O)NCC2CCS(=O)(=O)C2)ccc1NC(=O)c1ccco1 (stereo not drawn) | 2.82
O=S1(=O)C[C@@H]2[C@H](C1)N(Cc1cc(Cl)cc(Cl)c1)CCN2CCO | -1.4
CCOC(=O)c1coc(N2CCN(C(=O)c3cccc(OC)c3)CC2)n1 | -8.88
COc1cccc(CNC(=O)C(C)n2ccnc2C(C)C)c1OC (stereo not drawn) | 23.8
CN(Cc1cc2n(n1)CCNC2)Cc1n[nH]c2c1CCCCC2 | -1.36
CN(Cc1csc(-c2ccccc2)n1)Cc1ncccc1C(=O)O | 11.5
COC(=O)CNC(=O)c1cn(Cc2ccccc2F)nn1 | -5.61
COc1ccc(CN2CC[C@@H](N)[C@@H](OC)C2)cc1Cn1cncn1 | -6.47

SMILES | cytotoxicity at 70.5 h [%]
COc1ccc(NC(=O)CCN2CC=C(c3cnn(C)c3)CC2)c(C)c1 | 2.12
CN(Cc1cc(C(C)(C)C)n[nH]1)C(=O)CCC(=O)NC1CCCC1 | -9.2
CCCN(CCO)C(=O)c1cc(COc2ccc3c(c2)CCCC3)on1 | 11.2
O=C(CCC1CCN(C(=O)c2cc[nH]c2)CC1)NCc1cccc(Cl)c1 | -9.67
CCC(C)N(Cc1ccsc1)C(=O)c1ccc(CO)cc1 (stereo not drawn) | -0.23
O=C(O)COc1ccc(Cl)cc1CN1CCC2(CCOCC2)CC1 | 2.03
CSCC[C@H](NC(C)=O)C(=O)N(C)Cc1ccc(-n2cccn2)cc1 | 23.9
NCC1CN(C(=O)Cn2ncc(N3CCCCC3)cc2=O)CCO1 (stereo not drawn) | -2.61
CN(CCCc1nccn1C)C(=O)C1CCN(C(=O)C2CC2)CC1 | 0.477
Cc1cccc(CNCC2(O)CCCN(CC3CCCCC3)C2=O)n1 (stereo not drawn) | -5.28
CC(=O)c1cccc(-c2c[nH]c(C)n2)c1 | -7.11
Cc1nc(CNC(=O)c2cc(Cn3ccnc3C(C)C)[nH]n2)sc1C | -14.3
CCC(CO)N(Cc1ccccn1)C(=O)c1ccc(C)c(Cl)c1 (stereo not drawn) | -5.65
COc1cccc2c1OCC(CNc1cc(N)nc(SC)n1)C2 (stereo not drawn) | -8.3
Cc1cnc(NC(=O)c2cccc(CN(C)Cc3ccno3)c2)s1 | -4.32
c1cnc2ccc(C[C@@H]3CC[C@H](CN4CCCOCC4)O3)cc2c1 | -10.1
CCSc1ncc(CN2CCN(c3ncc(C)c(N)n3)CC2)cn1 | -9.95
CN(CCc1ccccc1)c1cnn(Cc2ccccn2)c(=O)c1 | -4.29
O=C(Nc1ccccc1CCO)c1cccc(CN2CC[C@H](O)C2)c1 | -8.22
CN(Cc1csc(-c2cccs2)n1)C(=O)CCn1ccc(=O)[nH]c1=O | 10.9
COc1ccc2c(=O)n(CC3CCCCN3C)ccc2c1OC (stereo not drawn) | -4.5
Cc1cccc(C(C(=O)N2CC(c3cccnc3)C2)N(C)C)c1 (stereo not drawn) | -0.966
CCN(C)C(=O)c1ccc(N(C)Cc2cc(-c3cccnc3)no2)nc1 | 0.809
CCO[C@H]1CN(C)C[C@@H]1NC(=O)c1cc(C)nc2c(C)c(C)ccc12 | -6.51
CC(C)c1cc(C(=O)N2CCC3(CC2)c2ccccc2[C@@H](N)[C@@H]3O)cs1 | -10.7
O=C(O)CSc1nnc(-c2ccn[nH]2)n1-c1ccccc1C(F)(F)F | -3.95
